According to patent US8367658B2, “Pyrazin-2-yl-pyridin-2-yl-amine and pyrazin-2-yl-pyrimidin-4-yl-amine compounds and their use” (Cancer Research Technology Limited, priority 2007, dated 2013):
Several values for one entry are separate records, joined by “and”; a condition that tells them apart may be missing. Identical values can stand only once.

These compounds were tested against T1, CHK1 (Homo sapiens, UniProt O14757) (assay: CHK1 kinase function inhibition assay (DELFIA, phosphorylation of a CDC25C peptide)). Settings: CHK1 1 nM, ATP 30 μM, 30 minutes at room temperature.
T1 sequence (O14757 1-476): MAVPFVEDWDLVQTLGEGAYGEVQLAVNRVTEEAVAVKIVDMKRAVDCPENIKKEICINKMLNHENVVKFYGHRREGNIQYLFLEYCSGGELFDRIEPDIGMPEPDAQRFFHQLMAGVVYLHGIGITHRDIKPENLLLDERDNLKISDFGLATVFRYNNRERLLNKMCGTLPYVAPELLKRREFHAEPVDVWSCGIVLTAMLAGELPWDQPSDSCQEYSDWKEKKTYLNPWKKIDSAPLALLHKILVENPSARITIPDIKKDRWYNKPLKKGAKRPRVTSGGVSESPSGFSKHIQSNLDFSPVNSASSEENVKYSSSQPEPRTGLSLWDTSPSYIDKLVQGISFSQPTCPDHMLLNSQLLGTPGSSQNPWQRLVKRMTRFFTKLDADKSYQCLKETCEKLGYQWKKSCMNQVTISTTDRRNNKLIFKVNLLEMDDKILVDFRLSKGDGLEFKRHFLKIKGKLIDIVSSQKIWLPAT
Assay type: biochemical
Procedure, shortened: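 Phosphorylation of a CDC25C peptide detected by DELFIA with a phospho-specific antibody. Kinase reaction ran 30 min at room temperature, was stopped with EDTA buffer, then captured on neutravidin-coated plates for 1 h before time-resolved fluorescence read-out with enhancement solution.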

Row | SMILES | IC50
1 | N#Cc1cnc(Nc2cc(N3CCC(C(N)c4ccccc4)CC3)ncn2)cn1 (centres unmarked) [Compound Z-015, 5-(6-(4-(Amino(phenyl)methyl)piperidin-1-yl)pyrimidin-4-ylamino)pyrazine-2-carbonitrile] | 1000 to 10000 nM
2 | N#Cc1cnc(Nc2cc(N[C@H]3CCNC3)ncn2)cn1 [Compound Z-024, (S)-5-(6-(Pyrrolidin-3-ylamino)pyrimidin-4-ylamino)pyrazine-2-carbonitrile] | 1000 to 10000 nM
3 | CN1CCC(Nc2cc(Nc3cnc(C#N)cn3)ncc2C(=O)O)CC1 [Compound Y-104, 6-(5-Cyanopyrazin-2-ylamino)-4-(1-methylpiperidin-4-ylamino)nicotinic acid] | 1000 to 10000 nM
4 | CN(C)CC(=O)Nc1cnc(Nc2cnc(C#N)cn2)cc1NC1CC2CCC(C1)N2C (centres unmarked) [Compound Y-015, N-(6-(5-Cyanopyrazin-2-ylamino)-4-(8-methyl-8-aza-bicyclo[3.2.1]octan-3-ylamino)pyridin-3-yl)-2-(dimethylamino)acetamide] | 1000 to 10000 nM
5 | CN1CCC(N(C)c2cc(Nc3cnc(C#N)cn3)ncc2Cl)CC1 [Compound Y-109, 5-(5-Chloro-4-(methyl(1-methylpiperidin-4-yl)amino)pyridin-2-ylamino)pyrazine-2-carbonitrile] | 100 to 1000 nM
6 | N#Cc1cnc(Nc2cc(NC3CCNCC3)ncn2)cn1 [Compound Z-012, 5-(6-(Piperidin-4-ylamino)pyrimidin-4-ylamino)pyrazine-2-carbonitrile] | ≤ 1000 nM and 100 to 1000 nM
7 | COc1nc(Nc2cc(NCC3CCNCC3)ncn2)cnc1C#N [Compound Z-046, 3-Methoxy-5-(6-(piperidin-4-ylmethylamino)pyrimidin-4-ylamino)-pyrazine-2-carbonitrile] | 1000 to 10000 nM
8 | NCCCNc1cc(Nc2cnccn2)ncn1 [Compound Z-005, N-(3-Aminopropyl)-A-pyrazin-2-ylpyrimidine-4,6-diamine] | 1000 to 10000 nM
9 | N#Cc1cnc(Nc2cc(NCC3CCCCN3)c(N)cn2)cn1 (centres unmarked) [Compound Y-051, 5-(5-Amino-4-(piperidin-2-ylmethylamino)pyridin-2-ylamino)pyrazine-2-carbonitrile] | 1000 to 10000 nM
10 | COC(=O)c1cnc(Nc2cnc(C#N)cn2)cc1N[C@H]1CC2CC[C@H](C1)N2C(=O)OC(C)(C)C (stereo in doubt) [Compound Y-074, (1R,5R)-tert-Butyl 3-(2-(5-cyanopyrazin-2-ylamino)-5-(methoxycarbonyl)pyridin-4-ylamino)-8-azabicyclo[3.2.1]octane-8-carboxylate] | 1000 to 10000 nM
11 | c1cnc(Nc2cc(NCC3CCNCC3)ncn2)cn1 [Compound Z-004, N-(Piperidin-4-ylmethyl)-W-pyrazin-2-ylpyrimidine-4,6-diamine] | 1000 to 10000 nM
12 | N#Cc1cnc(Nc2cc(NC3CCCCC3)c(N)cn2)cn1 [Compound Y-045, 5-(5-Amino-4-(cyclohexylamino)pyridin-2-ylamino)pyrazine-2-carbonitrile] | 1000 to 10000 nM

Continued, values first:

Row | IC50 | SMILES
13 | ≤ 100 nM | CN1CCC(Nc2cc(Nc3cnc(C#N)cn3)ncc2Cl)CC1 [Compound Y-108, 5-(5-Chloro-4-(1-methylpiperidin-4-ylamino)pyridin-2-ylamino)pyrazine-2-carbonitrile]
14 | 1000 to 10000 nM | CN(C)CC(=O)Nc1cnc(Nc2cnc(C#N)cn2)cc1OCC1CCNCC1 [Compound Y-039, N-(6-(5-Cyanopyrazin-2-ylamino)-4-(piperidin-4-ylmethoxy)pyridin-3-yl)-2-(dimethylamino)acetamide]
15 | 1000 to 10000 nM | N#Cc1cnc(Nc2cc(NCCC[C@H](N)C(=O)Nc3ccccc3)c(N)cn2)cn1 [Compound Y-052, (S)-2-Amino-5-(5-amino-2-(5-cyanopyrazin-2-ylamino)pyridin-4-ylamino)-N-phenylpentanamide]
16 | ≤ 100 nM | COc1cccc(-c2cnc(Nc3cnc(C#N)cn3)cc2NC2CCN(C)CC2)c1 [Compound Y-116, 5-(5-(3-Methoxyphenyl)-4-(1-methylpiperidin-4-ylamino)pyridin-2-ylamino)pyrazine-2-carbonitrile]
17 | ≤ 100 nM | CN1CCC(Nc2cc(Nc3cnc(C#N)cn3)ncc2[N+](=O)[O-])CC1 [Compound Y-040, 5-(4-(1-Methylpiperidin-4-ylamino)-5-nitropyridin-2-ylamino)pyrazine-2-carbonitrile]
18 | ≤ 100 nM | COc1ccc(NC(=O)c2cnc(Nc3cnc(C#N)cn3)cc2NCC2CCNCC2)cc1 [Compound Y-095, 6-(5-Cyanopyrazin-2-ylamino)-N-(4-methoxyphenyl)-4-(piperidin-4-ylmethylamino)nicotinamide]
19 | ≤ 100 nM | COCc1ccc(-c2cnc(Nc3cnc(C#N)cn3)cc2NC[C@H]2CNCCO2)cc1 [Compound Y-156, (R)-5-(5-(4-(Methoxymethyl)phenyl)-4-(morpholin-2-ylmethylamino)pyridin-2-ylamino)pyrazine-2-carbonitrile]
20 | ≤ 100 nM | CN1CCC(Nc2cc(Nc3cnc(C#N)cn3)ncc2-n2cccc2)CC1 [Compound Y-058, 5-(4-(1-Methylpiperidin-4-ylamino)-5-(1H-pyrrol-1-yl)pyridin-2-ylamino)pyrazine-2-carbonitrile]
21 | ≤ 100 nM | COCCNC(=O)c1cnc(Nc2cnc(C#N)cn2)cc1NCC1CCNCC1 [Compound Y-084, 6-(5-Cyanopyrazin-2-ylamino)-N-(2-methoxyethyl)-4-(piperidin-4-ylmethylamino)nicotinamide]
22 | ≤ 100 nM | COC(=O)c1cnc(Nc2cnc(C#N)cn2)cc1NCC1(F)CCNCC1 [Compound Y-083, Methyl 6-(5-Cyanopyrazin-2-ylamino)-4-((4-fluoropiperidin-4-yl)methylamino)nicotinate]
23 | ≤ 100 nM | COCCOc1cccc(-c2cnc(Nc3cnc(C#N)cn3)cc2NC2CCN(C)CC2)c1 [Compound Y-118, 5-(5-(3-(2-methoxyethoxy)phenyl)-4-(1-methylpiperidin-4-ylamino)pyridin-2-ylamino)pyrazine-2-carbonitrile]
24 | ≤ 100 nM | COC(=O)c1cnc(Nc2cnc(C#N)cn2)cc1NCC1(C)CCNCC1 [Compound Y-026, Methyl 6-(5-cyanopyrazin-2-ylamino)-4-((4-methylpiperidin-4-yl)methylamino)nicotinate]
25 | ≤ 100 nM | CCCN1CCC(Nc2cc(Nc3cnc(C#N)cn3)ncc2C(=O)OC)CC1 [Compound Y-077, Methyl 6-(5-cyanopyrazin-2-ylamino)-4-(1-propylpiperidin-4-ylamino)nicotinate]
26 | ≤ 100 nM | N#Cc1cnc(Nc2cc(NCC3CCCNC3)c(N3CCCC3)cn2)cn1 (centres unmarked) [Compound Y-059, 5-(4-(Piperidin-3-ylmethylamino)-5-(pyrrolidin-1-yl)pyridin-2-ylamino)pyrazine-2-carbonitrile]
27 | ≤ 100 nM | N#Cc1cnc(Nc2cc(NCC3CCCNC3)c(-n3ccc(CN4CCOCC4)c3)cn2)cn1 (centres unmarked) [Compound Y-062, 5-(5-(3-(Morpholinomethyl)-1H-pyrrol-1-yl)-4-(piperidin-3-ylmethylamino)pyridin-2-ylamino)pyrazine-2-carbonitrile]
28 | ≤ 100 nM | N#Cc1cnc(Nc2cc(NC[C@H]3CCCNC3)c(N)cn2)cn1 [Compound Y-047, (S)-5-(5-Amino-4-(piperidin-3-ylmethylamino)pyridin-2-ylamino)pyrazine-2-carbonitrile]
29 | ≤ 100 nM | COCc1ccc(-c2cnc(Nc3cnc(C#N)cn3)cc2NC[C@@H]2CNCCO2)cc1 [Compound Y-148, (S)-5-(5-(4-(Methoxymethyl)phenyl)-4-(morpholin-2-ylmethylamino)pyridin-2-ylamino)pyrazine-2-carbonitrile]
